According to US20060194235A1, “HLJ1 gene expression” (priority 2005, published 2006):

How the values were obtained:
PCY3 cells = experiment: In vitro Matrigel invasion assay; assay type: cell-based, human; conditions: siRNA treated
Procedure: The metastatic potential of tumors depends, in part, on the ability of the tumor cells to invade through a basement membrane and migrate to distant sites. The ability of cells transfected with HLJ1 to penetrate a Matrigel™ membrane using an in vitro assay, which is a modified Boyden chamber assay, as described in Example 15, was determined as an index of the metastatic potential of these cells. The YY1 transfectant PCY3, which expressed a high level of HLJ1, reduced cell invasion capability to about 56% and about 61% of the levels of CL1-0 and mock transfectants, respectively (68).
In vitro Matrigel™ invasion assays were performed in 6.5-mm transwell chambers (8 μm pore size; Costar®). The transwell filters in the chambers were coated with Matrigel™ (Becton Dickinson, Franklin Lakes, N.J.) (58). After a 16 or 24 h incubation, the filter was gently removed from the chamber, and the noninvasive cells on the upper surface were removed by wiping with a cotton swab. The cells that invaded the Matrigel™ and attached to the lower surface of the filter were fixed with methanol and stained with Giemza solution (Sigma, St. Louis, Mo.). The number of cells attached to the lower surface of the polycarbonate filter was counted under a light microscope at 200× magnification. Five fields of adherent cells were randomly counted in each well and the results were numerically averaged. […]

HLJ1 = experiment: siRNA knock-down of endogenous HLJ1 in the YY1 transfected cell line PCY3; assay type: cell-based, human; conditions: PCY3 cells
Source text: Inhibiting the ability of transfected cells to express HLJ1 can restore their invasive capacity. Small inhibiting RNA (siRNA) specific for HLJ1 decreased the endogenous HLJ1 RNA level in the YY1 transfected cell line, PCY3.
Two siRNA sequences were synthesized according to standard protocols (68). The sequence of HLJ1-A was […]. The sequence of HLJ1-D was […]. HLJ1-A and HLJ1-D reduced its expression by 64%. […] A negative control, scrambled siRNA, had no significant effect on HLJ1 expression or invasive capacity.

HLJ1-D: siRNA specific for HLJ1, sequence AAACGCTGATGGAAGGAGTTA (other strand not given here)
ability of PCY3 cells to invade through Matrigel, compared to PCC2 cells (PCY3 cells): 87%
reduction of HLJ1 expression (HLJ1): 64%
